Source: patent US11512821B2, “Systems and method for evaluating ultraviolet-protection products” (ABICH INC., priority 2019, dated 2022)
Read-outs that look alike come from different tables or passages of the source.

Columns and labels:
[1] = system: CD54 (Intercellular Adhesion Molecule); conditions: for CD54 % compared to Negative Control (CN): THP-1, 24 h; for CD54 MFI: THP-1, 24 h at 37° C.
Text: (§1) The purpose of the test is to assess the absence of pro-sensitizing skin effects from finished products or raw materials intended for contact with the skin or mucous membranes, such as medical devices, cosmetics, toys or textiles. In the present study, we used a human monocytes cell line (THP-1) as prototypic blood-derived immunologically active cell. On these cells, we tested the expression of two costimulatory molecules, CD54 (Intercellular Adhesion Molecule) and CD86 (B7.2), using as a positive control Nickel sulphate, a well-known contact sensitizing agent. Nickel sulphate is able to cause in vivo allergic immune reactions (skin sensitization) and it is also been widely used to study in vitro immune response modulation. As silicone elastomer (Silicone 30A—example of medical grade silicone) was tested at two concentrations, against Nickel positive controls.
(§2) The increasing expression level of CD54 and CD86 on monocytes is a signal of activation of the immune response derived from the exposition to a potentially sensitizing contact antigen. The expression of co-stimulatory molecules on the dendritic cells means activation of the immunological response in terms of capability to present the antigen in the typical tissues (skin in this case), where, in vivo, the immune protective response is triggered.
(§3) The normative reference is OECD Guideline 442E, “In vitro Skin Sensitization; Human Cell Line Activation Test (hCLAT)”, which is hereby incorporated by reference in its entirety. The method differs from the OECD Guideline as the test is performed in a single experimental session instead of three independent tests. As positive control, Nickel Sulfate is used instead of DNCB. […] In addition, the acceptance criteria and choice of concentrations to be used in the final test have been optimized according to the laboratory's historical results over the past 10 years.
(§4) The test is carried out on a monocyte-like human line called THP-1. Cells are kept in RPMI containing 10% FCS and 2 mM glutamine.
(§5) The sample has been eluted in phosphate buffered saline (1 g/5 ml) for 24 hours at 37° C. The eluted sample was diluted in the cell culture medium at different concentrations for the preliminary cytotoxicity screening on the cells aimed to decide the best concentration to test it without cytotoxic effects on the monocytes, in order to avoid false results. Cell medium exposed to the same experimental conditions were used as a negative control.
(§6) Following the results of the preliminary assay, the eluted sample was diluted directly in the cell medium at the two different dilutions in order to obtain the desired final concentrations in contact with the THP-1 cells in vitro. The exposure has been carried out for 24 h at 37° C. with 5% CO2.
(§7) After the incubation with the tested substance and the controls, cells are collected, checked under the microscope for their viability by staining with Trypan Blue dye and counting in a cell counter chamber, washed in PBS and then marked with a fluoresceinated anti-Intercellular Adhesion Molecule (CD54) or B7.2 (CD86) antibody and in both cases with a propidium iodide (PI) solution to simultaneously measure the percentage of dead cells. To this aim, a PI working solution (1 ml PI stock solution (1 mg PI/ml water) in 20 ml PI buffer (1 g glucose/l PBS without Ca/Mg)) is added to […]. A gate is set on the negative cells in order to exclude the dead cells. Only viable cells are included for analyses of CD54 or CD86 expression. After washing, to eliminate the excess antibody, the MFI (Mean Fluorescence Intensity) linked to the cells is evaluated by means of a flux cytofluorimeter (FACS, Fluorescence Activated Cell Sorter, Becton Dickinson, Mountain View, Calif.). This value is proportional to the expression of co-stimulatory molecules.
(§8) The results are expressed in terms of MFI (Mean Fluorescence Intensity).

CD86 (B7.2) = conditions: for CD86 % compared to CN: THP-1, 24 h; for CD86 MFI: THP-1, 24 h at 37° C.
Text: as §1, §2, §3, §4, §5, §6, §7, §8

THP-1 cells = type: cell-based; conditions: percent of living cells (PI negative), b192
Text: Cell vitality: The percent of living cells (PI negative) must be above 80% in all samples.

## O.O.O.O.O.O.O=S(=O)([O-])[O-].[Ni+2] [Nickel Sulfate, Nickel Sulphate (NiSO4.6H2O)]
[1]; 4 μg/ml
  CD54 % compared to Negative Control (CN): 35.74%
  CD54 MFI: 33.65
[1]; 10 μg/ml
  CD54 % compared to Negative Control (CN): 63.61%
  CD54 MFI: 40.56
[1]; 20 μg/ml
  CD54 % compared to Negative Control (CN): 163.94%
  CD54 MFI: 65.43
CD86 (B7.2); 4 μg/ml
  CD86 % compared to CN: 27.95%
  CD86 MFI: 26.32
CD86 (B7.2); 10 μg/ml
  CD86 % compared to CN: 146.23%
  CD86 MFI: 50.65
CD86 (B7.2); 20 μg/ml
  CD86 % compared to CN: 399.03%
  CD86 MFI: 102.65
THP-1 cells; 4 μg/ml
  PI: 88
THP-1 cells; 10 μg/ml
  PI: 86
THP-1 cells; 20 μg/ml
  PI: 86
